Assays:
OCTN1/slc22a4 = molecular target: T1, OCTN1/slc22a4 (Mus musculus, UniProt Q9Z306); test: [3H]L-carnitine uptake in NSC-34 cells with mOCTN1 siRNA knockdown; type: cell-based
T1 sequence (Q9Z306 1-553): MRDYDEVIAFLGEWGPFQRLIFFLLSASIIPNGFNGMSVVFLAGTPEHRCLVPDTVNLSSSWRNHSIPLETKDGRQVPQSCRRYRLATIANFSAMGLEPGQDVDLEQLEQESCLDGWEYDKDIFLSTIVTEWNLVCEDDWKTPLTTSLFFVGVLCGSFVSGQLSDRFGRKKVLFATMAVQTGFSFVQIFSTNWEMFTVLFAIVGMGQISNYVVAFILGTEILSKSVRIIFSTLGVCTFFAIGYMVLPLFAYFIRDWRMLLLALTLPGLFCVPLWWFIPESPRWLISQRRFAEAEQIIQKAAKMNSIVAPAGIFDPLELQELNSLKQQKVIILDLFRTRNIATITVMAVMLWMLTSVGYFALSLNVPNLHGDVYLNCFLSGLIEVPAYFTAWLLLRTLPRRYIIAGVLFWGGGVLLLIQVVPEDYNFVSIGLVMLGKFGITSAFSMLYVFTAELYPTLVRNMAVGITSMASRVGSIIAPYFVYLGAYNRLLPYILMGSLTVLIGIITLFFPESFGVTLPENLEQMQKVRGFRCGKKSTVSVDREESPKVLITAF

OCTN2/slc22a5 = molecular target: T2, OCTN2/slc22a5 (Mus musculus, UniProt Q9Z0E8); test: [3H]L-carnitine uptake in NSC-34 cells with mOCTN2 siRNA knockdown; type: cell-based
T2 sequence (Q9Z0E8 1-557): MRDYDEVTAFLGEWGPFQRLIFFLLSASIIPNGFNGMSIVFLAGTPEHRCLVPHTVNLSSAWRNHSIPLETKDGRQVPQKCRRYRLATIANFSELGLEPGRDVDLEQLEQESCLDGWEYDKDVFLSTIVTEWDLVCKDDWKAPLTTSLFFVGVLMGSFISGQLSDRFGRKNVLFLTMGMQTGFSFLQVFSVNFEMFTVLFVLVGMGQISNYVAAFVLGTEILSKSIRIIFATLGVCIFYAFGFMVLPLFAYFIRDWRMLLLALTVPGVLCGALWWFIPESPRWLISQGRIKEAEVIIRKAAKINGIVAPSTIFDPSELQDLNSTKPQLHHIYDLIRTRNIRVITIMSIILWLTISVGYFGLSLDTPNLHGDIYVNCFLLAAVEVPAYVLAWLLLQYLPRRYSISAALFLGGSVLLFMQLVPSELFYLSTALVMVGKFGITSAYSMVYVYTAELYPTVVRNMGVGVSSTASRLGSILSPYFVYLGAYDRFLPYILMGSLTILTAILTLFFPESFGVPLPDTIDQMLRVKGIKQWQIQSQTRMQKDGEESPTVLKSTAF

With `C[N+](C)(C)C[C@H](O)CC(=O)[O-]` [LC, L-carnitine] the “[3H]L-carnitine uptake in NSC-34 cells with mOCTN1 siRNA knockdown” value (OCTN1/slc22a4) was “OCTN1/slc22a4 and OCTN2/slc22a5 siRNA transfection study revealed both transporters are involved in LC transport in NSC-34 cell lines” and the “[3H]L-carnitine uptake in NSC-34 cells with mOCTN2 siRNA knockdown” value (OCTN2/slc22a5) was “mOCTN1 and mOCTN2 siRNA-transfected NSC-34 cell lines demonstrated a significant decrease in the slc22a4 and slc22a5 gene expression level”.

Reference: paper PMC8070968, “The Alteration of L-Carnitine Transport and Pretreatment Effect under Glutamate Cytotoxicity on Motor Neuron-Like NSC-34 Lines” (Pharmaceutics, 2021)
